The numbers were not newly measured in US8709720B2, “Methods and kits for predicting the responsiveness of hepatocellular carcinoma patients to 5-fluorouracil-based combination chemotherapy” (priority 2012, dated 2014), which cites them from elsewhere.

The series has as its system advanced HCC. The conditions noted are these: advanced HCC patients, prior research / clinical trials.

For `COc1cccc2c1C(=O)c1c(O)c3c(c(O)c1C2=O)C[C@@](O)(C(=O)CO)C[C@@H]3O[C@H]1C[C@H](N)[C@H](O)[C@H](C)O1` [doxorubicin], the response rate is on record as 32%.
